Experimental data taken from patent US9278083B2, “Methods for purifying trans-(−)-Δ9-tetrahydrocannabinol and trans-(+)-Δ9-tetrahydrocannabinol” (SVC Pharma LP, priority 2004, dated 2016).

Assay: Storage stability of crystalline (±)-Δ^9-THC at 25° C.

CCCCCc1cc(O)c2c(c1)OC(C)(C)[C@@H]1CCC(C)=C[C@@H]21 (racemic) [crystalline (±)-Δ^9-THC, (±)-Δ^9-THC]
Stability on storage (off-white crystals of Example 17, at 25° C. in the presence of air and laboratory lighting): stable | Appearance (colour) on storage (white crystalline solid of Example 15, after at least three days at 25° C.): remained white
